Results reported in patent US9212165B2, “Bicarbocyclic and tricarbocyclic ethynyl derivatives and uses of same” (H. Lundbeck A/S, priority 2011, dated 2015).

biological target: mGluR5 (MPEP binding site) (Homo sapiens (Human), UniProt P41594); assay: Radioligand binding assay (MPEP site radioligand, membrane filtration); details: 5 nM radioligand binding to MPEP site; Cheng-Prusoff
Experimental: Binding assays were performed as described in [J. A. O'Brien et al. Mol Pharmacol., 2003, 64, 731-740] with slight modifications, including that a radioligand that binds to the […] (MPEP) binding site was used in place of [^3H] MPEP. Briefly, after thawing, the membrane homogenates were resuspended in 50 mM Tris-HCl and 0.9% NaCl binding buffer at pH 7.4 to a final assay concentration of 20 μg protein/well for radioligand filtration binding. Incubations included 5 nM radioligand, membranes and either buffer or varying concentrations of compound. Samples were incubated for 60 min at room temperature with shaking. Non-specific binding was defined with 10 μM cold MPEP when using the radioligand. After incubation, samples were filtered over a GF/C filter (presoaked in 0.25% polyethyleneimine (PEI)) and then washed 4 times using a Tomtec® Harvester 96® Mach III cell harvester (Tomtec, Hamden, Conn.) with 0.5 mL ice-cold 50 mM Tris-HCl (pH 7.4).
IC50 values were derived from the inhibition curve and Ki values were calculated according to the Cheng and Prusoff equation of Ki=IC50/(1+[L]/Kd) described in [Y. Cheng and W. H. Prusoff Biochem. Pharmacal. 1973, 22, 3099-3108] where [L] is the concentration of radioligand and Kd is its dissociation constant at the receptor, derived from the saturation isotherm.

Sequence of mGluR5 (MPEP binding site) (P41594 21-1212): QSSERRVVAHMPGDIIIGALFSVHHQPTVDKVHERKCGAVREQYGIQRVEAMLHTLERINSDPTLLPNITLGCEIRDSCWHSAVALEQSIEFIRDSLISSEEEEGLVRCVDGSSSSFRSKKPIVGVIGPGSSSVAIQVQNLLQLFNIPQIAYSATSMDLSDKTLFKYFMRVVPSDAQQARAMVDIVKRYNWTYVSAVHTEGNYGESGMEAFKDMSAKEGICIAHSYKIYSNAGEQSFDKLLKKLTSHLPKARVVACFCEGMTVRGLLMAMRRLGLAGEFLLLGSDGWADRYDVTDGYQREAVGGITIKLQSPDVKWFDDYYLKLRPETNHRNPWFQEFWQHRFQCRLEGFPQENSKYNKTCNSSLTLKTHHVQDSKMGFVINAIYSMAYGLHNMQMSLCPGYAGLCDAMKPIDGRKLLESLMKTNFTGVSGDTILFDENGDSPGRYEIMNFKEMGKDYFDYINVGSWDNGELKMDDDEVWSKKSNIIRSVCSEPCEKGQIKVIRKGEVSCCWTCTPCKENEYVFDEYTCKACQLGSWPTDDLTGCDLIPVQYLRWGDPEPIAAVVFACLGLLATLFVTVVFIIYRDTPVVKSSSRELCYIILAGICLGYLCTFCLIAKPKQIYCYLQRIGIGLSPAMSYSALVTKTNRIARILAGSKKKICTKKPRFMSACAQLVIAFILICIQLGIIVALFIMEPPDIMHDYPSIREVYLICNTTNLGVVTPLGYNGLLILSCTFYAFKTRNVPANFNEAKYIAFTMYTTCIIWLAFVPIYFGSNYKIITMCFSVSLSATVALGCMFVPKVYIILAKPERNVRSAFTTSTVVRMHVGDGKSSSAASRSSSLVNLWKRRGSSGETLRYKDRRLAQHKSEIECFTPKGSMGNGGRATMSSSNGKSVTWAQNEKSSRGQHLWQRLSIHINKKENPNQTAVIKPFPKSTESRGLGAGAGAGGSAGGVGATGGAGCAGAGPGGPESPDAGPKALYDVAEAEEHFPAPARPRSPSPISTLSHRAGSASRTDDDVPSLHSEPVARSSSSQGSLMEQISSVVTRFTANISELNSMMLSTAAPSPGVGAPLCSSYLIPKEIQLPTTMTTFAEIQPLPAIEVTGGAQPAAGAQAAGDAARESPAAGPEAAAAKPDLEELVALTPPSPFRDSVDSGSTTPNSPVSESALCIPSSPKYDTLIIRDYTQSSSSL

Ki [nM] | SMILES
3 | O=C(NC12CCCC(C#Cc3cccc(F)c3)(CC1)C2)c1cnccn1 (stereo not shown) [Example 3, pyrazine-2-carboxylic acid [5-(3-fluoro-phenylethynyl)-bicyclo[3.2.1]oct-1-yl]-amide]
91 | O=C(NC12CCCC(C#Cc3cnccn3)(CC1)C2)c1cccc(Cl)c1 (stereo not shown) [Example 13, 3-Chloro-N-(5-pyrazin-2-ylethynyl-bicyclo[3.2.1]oct-1-yl)-benzamide]
10 | Cc1nccc(C(=O)N[C@]23CCC[C@](C#Cc4ccccn4)(CC2)C3)n1 [Example 18, 2-methyl-N-((1R,5S)-5-(pyridin-2-ylethynyl)bicyclo[3.2.1]octan-1-yl)pyrimidine-4-carboxamide]
11 | O=C(N[C@]12CCC[C@](C#Cc3ccccn3)(CC1)C2)c1ccc(F)cn1 [Example 20, 5-fluoro-N-((1R,5S)-5-(pyridin-2-ylethynyl)bicyclo[3.2.1]octan-1-yl)picolinamide]
17 | Cc1nccc(C(=O)N[C@@]23CCC[C@@](C#Cc4ccccn4)(CC2)C3)n1 [Example 28, 2-methyl-N-((1S,5R)-5-(pyridin-2-ylethynyl)bicyclo[3.2.1]octan-1-yl)pyrimidine-4-carboxamide]
35 | O=C(N[C@@]12CCC[C@@](C#Cc3ccccn3)(CC1)C2)c1ccc(F)cn1 [Example 30, 5-fluoro-N-((1S,5R)-5-(pyridin-2-ylethynyl)bicyclo[3.2.1]octan-1-yl)picolinamide]
34 | Cn1ccc(C(=O)N[C@]23CCC[C@](C#Cc4cnccn4)(CC2)C3)n1 [Example 44, 1-methyl-N-((1R,5S)-5-(pyrazin-2-ylethynyl)bicyclo[3.2.1]octan-1-yl)-1H-pyrazole-3-carboxamide]
6.2 | Cc1csc(C(=O)N[C@]23CCC[C@](C#Cc4cnccn4)(CC2)C3)n1 [Example 45, 4-methyl-N-((1R,5S)-5-(pyrazin-2-ylethynyl)bicyclo[3.2.1]octan-1-yl)thiazole-2-carboxamide]
590 | Cn1ccc(C(=O)N[C@@]23CCC[C@@](C#Cc4cnccn4)(CC2)C3)n1 [Example 49, 1-methyl-N-((1S,5R)-5-(pyrazin-2-ylethynyl)bicyclo[3.2.1]octan-1-yl)-1H-pyrazole-3-carboxamide]
38 | Cc1csc(C(=O)N[C@@]23CCC[C@@](C#Cc4cnccn4)(CC2)C3)n1 [Example 50, 4-methyl-N-((1S,5R)-5-(pyrazin-2-ylethynyl)bicyclo[3.2.1]octan-1-yl)thiazole-2-carboxamide]
1300 | Cc1cncc(C#CC23CC4CC(C2)CC(NC(=O)c2cccc(F)c2)(C4)C3)n1 [Example 56, 3-fluoro-N-[3-(6-methylpyrazin-2-ylethynyl)-1-adamantyl]benzamide]
4.7 | O=C(NC12CC3CC(CC(C#Cc4ccccn4)(C3)C1)C2)c1cnccn1 [Example 71, N-[3-(pyridin-2-ylethynyl)-1-adamantyl]pyrazine-2-carboxamide]
120 | Cc1csc(C#CC23CC4CC(C2)CC(NC(=O)c2ccn(C)n2)(C4)C3)n1 [Example 81, 1-methyl-N-[3-(4-methylthiazol-2-ylethynyl)-1-adamantyl]-1H-pyrazole-3-carboxamide]
